Experimental data from paper PMC5120310, “In Silico Exploration for Novel Type-I Inhibitors of Tie-2/TEK: The Performance of Different Selection Strategy in Selecting Virtual Screening Candidates” (Scientific Reports, 2016).
Like-named read-outs stand apart in the source and are kept apart here.

Assays:
[1] = target: T1, recombinant human Tie-2 protein (Homo sapiens, UniProt Q02763); experiment: Z′-Lyte FRET enzymatic activity assay of Tie-2 kinase; assay type: biochemical; details: for Inhibition (%) @10 μg/ml / inhibition at 10 µg/mL: 10 μg/mL preliminary screening, Table S1; for inhibition at 5 µg/mL: read-out: Kinase Inhibition (%) at 5 μg/mL (± SD)
T1 construct: purchased Thermo Fisher Scientific Inc. PV3628
Experimental: In order to assess the biological inhibitory activity of the VS compounds, Z’-Lyte enzymatic activity assay based on FRET (Fluorescence Resonance Energy Transfer) technology was developed as described above. […] At first, all the compounds obtained from both filtering strategies were preliminary screened for their ability to inhibit Tie-2 kinase activity at the concentration of 10 μg/mL.
The Tie-2 kinase inhibitor (CAS#: 948557-43-5, purity ≥ 97%) was purchased from Merck Calbiochem (Darmstadt, Germany) and used as a positive control inhibitor in bioassays[40]. […] All the purchased screening compounds were firstly dissolved in dimethyl sulfoxide (DMSO) at a stock concentration of 5 mg/ml. The final working concentration of DMSO is less than 1%.
Compounds were tested for their ability to inhibit Tie-2 kinase activity using Z′-Lyte® kinase assay kit (ser/thr 5 peptide) with NUNC 384-well plate. In the first step, the test compounds and ATP solution were firstly prepared at 4 × desired concentration. The mixture of recombinant human Tie-2 protein and non-phosphorylated peptide at 2 × desired concentration was prepared in kinase reaction buffer A consisting of 50 mM HEPES (pH 7.5), 0.01% BRIJ-35, 10 mM MgCl2, 4 mM MnCl2, 1 mM EGTA and 2 mM DTT. Reactions were then carried out in a solution containing 2.5 μL test compounds, 5 μL Tie-2/Tyr 05 peptide mixture (10 ng Tie-2 and 2 μM Tyr 05 peptide) and 2.5 μL ATP (100 μM). Then, the assay plate was shaken for 30 seconds on a plate shaker, and incubated for 1 hour at room temperature (20~25 °C). After sufficient kinase reactions, 5 μL development reagent A was added to each well, and the plate was incubated for another hour. Finally, 5 μL stop reagent was added to terminate the reactions, and the coumarin and fluorescein emission signals (excitation: 400 nm; emission: 445 and 520 nm, respectively) were measured on a fluorescence plate reader (BioTek Synergy 4).

Tie-2 = system: Tie-2; parameters: method as in PMID 17618114; details: tool inhibitor; read-out: IC50 against Tie-2, previously reported; cited from earlier work
[2] = Z′-Lyte assay, 100 μM ATP, n ≥ 2 per concentration, read-out: IC50 (half-maximal inhibitory concentration), Tie-2 kinase
[3] = in the dose-response figure, read-out: IC50 (dose-dependent inhibitory effect), Tie-2 kinase (converted)

T1 sequence (Q02763 23-1124): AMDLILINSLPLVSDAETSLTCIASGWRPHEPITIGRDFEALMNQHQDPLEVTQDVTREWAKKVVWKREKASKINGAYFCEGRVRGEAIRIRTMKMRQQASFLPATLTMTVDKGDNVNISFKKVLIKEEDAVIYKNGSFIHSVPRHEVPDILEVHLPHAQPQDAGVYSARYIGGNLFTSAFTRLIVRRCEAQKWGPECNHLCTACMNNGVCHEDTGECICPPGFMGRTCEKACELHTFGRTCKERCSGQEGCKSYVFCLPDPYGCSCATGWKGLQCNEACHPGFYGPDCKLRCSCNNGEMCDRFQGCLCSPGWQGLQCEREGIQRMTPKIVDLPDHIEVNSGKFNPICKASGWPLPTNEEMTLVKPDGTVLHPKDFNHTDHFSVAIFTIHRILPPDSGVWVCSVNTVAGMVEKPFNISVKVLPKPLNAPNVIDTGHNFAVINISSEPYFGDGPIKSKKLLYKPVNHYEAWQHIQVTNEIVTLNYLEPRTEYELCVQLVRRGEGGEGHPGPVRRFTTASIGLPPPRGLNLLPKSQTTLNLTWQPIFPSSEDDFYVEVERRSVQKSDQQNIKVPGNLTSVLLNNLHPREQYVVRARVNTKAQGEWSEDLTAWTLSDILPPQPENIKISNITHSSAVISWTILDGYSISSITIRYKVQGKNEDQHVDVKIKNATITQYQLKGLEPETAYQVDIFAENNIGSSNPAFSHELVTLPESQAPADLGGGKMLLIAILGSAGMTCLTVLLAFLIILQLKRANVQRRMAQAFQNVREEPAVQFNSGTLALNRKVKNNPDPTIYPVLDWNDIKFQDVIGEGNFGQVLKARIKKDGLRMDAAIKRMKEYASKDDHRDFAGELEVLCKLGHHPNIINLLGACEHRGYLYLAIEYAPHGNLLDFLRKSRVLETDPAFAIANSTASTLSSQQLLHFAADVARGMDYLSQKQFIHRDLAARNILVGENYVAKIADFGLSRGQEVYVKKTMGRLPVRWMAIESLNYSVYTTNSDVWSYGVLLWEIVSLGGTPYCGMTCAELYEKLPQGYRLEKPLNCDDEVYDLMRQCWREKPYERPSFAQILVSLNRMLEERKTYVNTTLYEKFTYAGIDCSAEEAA

Structure (SMILES) | Inhibition (%) @10 μg/ml [1] | also measured
COc1ccc2cc(-c3nc(-c4ccc([S+](C)[O-])cc4)[nH]c3-c3ccncc3)ccc2c1 (centres unmarked) [Tie-2 inhibitor, reference compound] | 95.2±1.58% | Kinase Inhibition (%) at 5 μg/mL (± SD) ([1]; 5 μg/mL, n ≥ 2): 93.01 ± 1.02%; IC50 (Tie-2): 0.25 µM
O=C(OCC(=O)c1ccccc1Cl)c1ccc2c(c1)-c1ccccc1C2=O [TP-C2-21] | 75.19±7.09% | 
CC(=O)Nc1c(O)nc(SCC(=O)Nc2ccc(C(C)=O)cc2)[nH]c1=O [TP-C1-47] |  | inhibition at 10 µg/mL [1]: 81.9 ± 1.73%; IC50 [1, 2]: 5.15 ± 0.4 µM; IC50 [1, 3]: 5.15 µM
c1ccc(-c2nnc(CSc3nnc(-c4ccncc4)[nH]3)o2)cc1 [TP-C1-53] | 28.39±0.73% | 
CN1C(=O)c2ccc(C(=O)NCc3ccccn3)cc2C1=O [TP-C2-51] | 77.63±0.16% | 
COc1cccc(OC)c1C(=O)NC(=S)Nc1ccc(NC(=O)c2ccco2)c(Cl)c1 [TP-C1-49] | 49.58±1.56% | 
O=C1c2ccccc2C(=O)N1CCc1nn2c(-c3cccnc3)nnc2s1 [TP-C1-52] |  | inhibition at 10 µg/mL [1]: 101 ± 2.04%; IC50 [1, 2]: 15.3 ± 0.68 µM; fold decreased activity compared to TP-C1-17 and TP-C1-47 ([1]; from IC50 values): ~ 3 fold; IC50 [1, 3]: 15.3 µM
Cc1cccc(C(=O)Nc2ccc(NC(=S)NC(=O)c3ccccc3)cc2)c1 [TP-C3-3] |  | inhibition at 5 µg/mL ([1]; 5 μg/mL, n ≥ 2): 67.3 ± 0.78%; IC50 [1, 2]: 2.82 µM
O=C(NCc1ccco1)c1cc(-c2ccccn2)nc2ccc(Cl)cc12 [TP-C2-35] | 87.59±3.7% | IC50 [1, 2]: 4.59 ± 0.29 µM
c1cncc(CN2CN(CC3CCCO3)c3nc4ccccc4n3C2)c1 (racemic) [TP-C1-56] | 29.83±0.28% | 
COc1cc(-c2nc3ccccn3c2N=Cc2c[nH]nc2-c2ccccc2)ccc1O [TP-C1-5] | 25.58±3.23% | 
CC(C)CNC(=O)c1ccccc1NC(=O)c1ccccc1N(C)S(=O)(=O)c1ccccc1 [TP-C2-29] | 55.92±5.4% | 
O=C(NCCOc1ccccc1)c1n[nH]c(=O)c2ccccc12 [TP-C2-44] | 52.94±2.54% | 
COCCCN1C(=O)C(O)=C(C(=O)c2ccc(Cl)cc2)C1c1ccc(O)cc1 (centres unmarked) [TP-C1-26] | 7.19±0.3% | 
O=c1[nH]nc(CCc2n[nH]c(=O)c3ccccc23)c2ccccc12 [TP-C2-1] | 48.48±7.49% | 
NS(=O)(=O)c1ccc(CCNC(=O)c2cc(-c3ccncc3)nc3ccc(Cl)cc23)cc1 [TP-C2-38] | 89.98±1.62% | IC50 [1, 2]: 7.88 ± 0.35 µM
COc1cccc(C2C(C(=O)c3ccc(C)o3)=C(O)C(=O)N2CCN(C)C)c1 (centres unmarked) [TP-C1-25] | 3.13±1.45% | 
CC(=O)c1cccc(NC(=O)CSc2nnc(CSCc3ccccc3F)n2C)c1 [TP-C2-49] | 63.31±0.29% | 
N#Cc1cc2c([nH]c1=O)CC(c1ccccc1)CC2=NNc1ccccc1 (centres unmarked) [TP-C1-2] | 56.84±0.18% | 
CCOc1cc(CNCCc2ccc(S(N)(=O)=O)cc2)ccc1OCc1ccccc1.Cl [TP-C2-42] | 23.47±2.17% | 
Cc1cc(C(=O)c2ccccc2)ccc1OC(=O)CN1C(=O)c2ccccc2C1=O [TP-C1-42] | -27.08±4.67% | 
O=C(NCc1n[nH]c(=O)c2ccccc12)c1cc2ccccc2oc1=O [TP-C2-32] | 66.52±7.26% | 
COc1ccc(C(=O)NC(=S)Nc2ccc(-c3nc4cc(C)c(C)cc4o3)cc2)cc1OC [TP-C2-8] | 68.53±6.25% | 
CC(=O)c1c(C)cc(C)c(CSc2ccccn2)c1C [TP-C2-22] | 90.2±6.92% | IC50 [1, 2]: 8.44 ± 0.93 µM

Structure (SMILES) | Inhibition (%) @10 μg/ml [1] | also measured
CCOC(=O)CNS(=O)(=O)c1cc(-c2nnc(Nc3cccc(C)c3)c3ccccc23)ccc1C [TP-C1-16] | 9.52±4.54% | 
COc1cc(C(=O)n2c(SCc3ccc(F)cc3)nc3ccccc32)cc(OC)c1OC [TP-C1-22] | -46.75±1.97% | 
O=C(Nc1ccccn1)c1cc(-c2ccncc2)nc2ccccc12 [TP-C2-54] | 60.19±2.33% | 
CCc1cc2c(-c3ccccc3)cc(=O)oc2cc1OCC(=O)c1ccc(F)cc1 [TP-C2-18] | 43.81±7.48% | 
Cc1cccc(-n2c(CCN3C(=O)c4ccccc4C3=O)nc3ccccc3c2=O)c1 [TP-C1-10] | 44.25±1.05% | 
CCOC(=O)c1ccc(NC(=O)CN2C(=O)c3ccccc3C2=O)cc1 [TP-C1-3] | 37.64±1.82% | 
CC1=C(C(=O)Nc2ccc(C)cc2C)C(c2ccc(OCc3ccccc3)cc2)NC(=S)N1 (racemic) [TP-C2-40] | 95.39±0.98% | IC50 [1, 2]: 4.69 ± 0.37 µM
Cl.O=C(O)c1ccc(Cl)c(-c2ccc(CNCC(O)c3ccccc3)o2)c1 (centres unmarked) [TP-C1-55] | 20.01±0.68% | 
O=c1cc(-c2ccccc2)c2ccc(OCc3cccc(C(F)(F)F)c3)cc2o1 [TP-C1-18] | 39.7±2.94% | Tie-2 inhibitory activity in words (active / inactive) ([1]; VS candidates of Strategy 1, preliminary screening at 10 μg/mL): inactive
COc1cc2c(cc1OC)C(c1ccc(OCc3ccccc3)cc1)CC(=O)N2 (racemic) [TP-C2-27] | 55.28±4.04% | 
CC(C)(C)c1ccc(C(=O)Nc2ccc(NC(=S)NC(=O)c3ccccc3)cc2)cc1 [TP-C3-2] |  | inhibition at 5 µg/mL ([1]; 5 μg/mL, n ≥ 2): 33.4 ± 1.74%; IC50 [1, 2]: 27.1 µM; fold decrease in activity compared with compound TP-C3-3 ([1]; from IC50 values): ~ 10 fold
Cc1cc(NC(=S)NC(=O)c2ccc(Cl)c(Cl)c2)ccc1NC(=O)c1ccccc1 [TP-C3-29] |  | inhibition at 5 µg/mL ([1]; 5 μg/mL, n ≥ 2): 57.95 ± 0.29%; IC50 [1, 2]: 28.2 µM
O=C(NC(=S)Nc1cccc2c(O)cccc12)c1ccc(-c2ccccc2)cc1 [TP-C2-50] |  | inhibition at 10 µg/mL [1]: 97.8 ± 1.13%; IC50 [1, 2]: 1.73 ± 0.17 µM; IC50 [1, 3]: 1.73 µM
Cc1ccccc1OCC(=O)OCC(=O)c1ccc(OCc2ccccc2)cc1 [TP-C2-20] | 36.45±0.94% | 
O=C(Nc1ccccc1C(=O)NCc1cccnc1)c1cccc(F)c1 [TP-C2-55] | 81.27±3.01% | IC50 [1, 2]: 8.21 ± 0.46 µM
Fc1ccc(C2CC(c3cccs3)=NN2C(=S)NCCc2ccccc2)cc1 (racemic) [TP-C1-39] | 56.09±2.14% | 
COc1cc(NC(=S)NC(=O)c2ccccc2OC)ccc1NC(=O)c1cc2ccccc2o1 [TP-C2-11] | 87.61±5.43% | IC50 [1, 2]: 15.1 ± 0.92 µM
CCOc1ccc(CN(CCc2ccc3c(c2)OCO3)Cc2ccc(C(F)(F)F)cc2)cc1 [TP-C2-6] | 49.69±0.95% | 
Cc1ccccc1C(=O)Nc1cccc(Oc2ccc3c(c2)C(=O)NC3=O)c1 [TP-C2-26] | 61.34±20.45% | 
COc1ccc(CNC(=O)CSc2nc3ccc(NC(=O)c4ccccc4C)cc3s2)cc1 [TP-C1-32] | 47.23±0.53% | 
Cn1c(=O)[nH]c(=O)c2c1nc(NCCCO)n2CC(O)COc1ccccc1 (centres unmarked) [TP-C2-2] | 51.41±2.9% | 
COc1ccc(-c2cc3ccccc3oc2=O)cc1NC(=O)c1cccnc1 [TP-C2-31] | 51.93±0.22% | 
O=C(NCCc1cccc2ccccc12)C1CCCN1S(=O)(=O)c1ccc2ccccc2c1 (centres unmarked) [TP-C1-29] | 39.83±5.94% | 
COc1ccc(C2C(C(=O)c3cccs3)=C(O)C(=O)N2CCN(C)C)cc1OC (racemic) [TP-C2-17] | 66.32±3.22% | 
